Results reported in patent US6900331B2, “Derivatives of epothilone B and D and synthesis thereof” (University of Notre Dame, priority 2002, dated 2005).

Columns and labels:
[1] = system: Human breast carcinoma cell line MCF-7; assay: Cytotoxicity assay (SRB), MCF-7; type: cell-based; settings: 3 days exposure, SRB staining
Procedure: (§1) Cell lines and culture conditions: Human breast carcinoma cell line MCF-7, multi-drug resistant breast carcinoma cell line NCI/ADR, non-small cell lung carcinoma cell line NCI-H460 and glioma cell line SF-268 were obtained from the National Cancer Institute. All cell lines were maintained in RPMI-1640 medium (Gibco/BRL, Rockville, Md.) supplemented with 2 mM L-glutamine, 25 mM HEPES and 10% FBS (Hyclone, Logan, Utah). Cells were maintained in a humidified incubator at 37° C. in 5% CO2.
(§2) Cytoloxicity assays: Tumor cells were seeded in 100 μl at 5000 (MCF-7), 7500 (NCI/ADR), 5000 (NCI-H460) and 7500 (SF-268) cells per well in 96-well plates. Cells were allowed to adhere for 24 hours. Each compound ranging from 0.001 to 1000 nM in 100 μl was added to cells in triplicate wells. After 3 days, cells were fixed at 4° C. for 1 hour with 10% trichloroacetic acid and then stained with 0.2% sulforhodamine B (SRB)/1% acetic acid for 20 minutes at room temperature. The unbounded dye was rinsed away with 1% acetic acid, and the bounded SRB was then extracted with 200 μl of 10 mM Tris base. The absorbance was measured at 515 nm using a 96-well microtiter plate reader (Spectra Max 250, Molecular Devices). The IC50 values were calculated using a KaleidaGraph program. The experiments were performed twice.

[2] = system: multi-drug resistant breast carcinoma cell line NCI/ADR; assay: Cytotoxicity assay (SRB), NCI/ADR; type: cell-based, Human; settings: 3 days exposure, SRB staining
Procedure: as §1, §2

[3] = system: non-small cell lung carcinoma cell line NCI-H460; assay: Cytotoxicity assay (SRB), NCI-H460; type: cell-based, Human; settings: 3 days exposure, SRB staining
Procedure: as §1, §2

glioma cell line SF-268 = assay: Cytotoxicity assay (SRB), SF-268; type: cell-based, Human; settings: 3 days exposure, SRB staining
Procedure: as §1, §2

tubulin = assay: Preliminary tubulin polymerization activity; type: biochemical; settings: preliminary biological investigations
tumor cell = assay: Tumor cell growth assays; type: cell-based; settings: fold as active as epothilone B

| Compound | IC50 [1] [nM] | IC50 [2] [nM] | IC50 [3] [nM] | IC50 (glioma cell line SF-268) [nM] | tubulin polymerization activity (tubulin) | activity relative to epothilone B itself (tumor cell) [×] | IC50 ([1]; Homo sapiens, MCF7, 72 h) [nM] | IC50 ([2]; Homo sapiens, NCI/ADR-RES, 72 h) [nM] | IC50 ([3]; Homo sapiens, NCI-H460, 72 h) [nM] | IC50 (glioma cell line SF-268; Homo sapiens, SF-268, 72 h) [nM] |
| --- | --- | --- | --- | --- | --- | --- | --- | --- | --- | --- |
| C/C1=C/[C@@H](C)[C@@H](/C(C)=C/c2csc(C)n2)OC(=O)C[C@H](O)C(C)(C)C(=O)[C@H](C)[C@@H](O)[C@@H](C)CCC1 [Compound 13, (R)-C14-methyl epothilone D] | > 1000 | > 1000 | > 1000 | > 1000 | relatively weak activity |  |  |  |  |  |
| C/C(=C\c1csc(C)n1)[C@H]1OC(=O)C[C@H](O)C(C)(C)C(=O)[C@H](C)[C@@H](O)[C@@H](C)CCC[C@@]2(C)O[C@H]2[C@@H]1C [Compound 3, (R)-C14-methyl epothilone B] | 3 | 23 | 3 | 3 | significant | > 2 |  |  |  |  |
| C/C(=C\c1csc(C)n1)[C@H]1OC(=O)C[C@H](O)C(C)(C)C(=O)[C@H](C)[C@@H](O)[C@@H](C)CCC[C@@]2(C)O[C@H]2[C@H]1C [Compound 4, (S)-C14-methyl epothilone B] | > 1000 | > 1000 | > 1000 | > 1000 |  |  |  |  |  |  |
| C/C1=C/C[C@@H](/C(C)=C/c2csc(C)n2)OC(=O)C[C@H](O)C(C)(C)C(=O)[C@H](C)[C@@H](O)[C@@H](C)CCC1 [Epothilone D, reference compound] | 5 | 26 | 20 | 7 |  |  |  |  |  |  |
| C/C1=C/[C@H](C)[C@@H](/C(C)=C/c2csc(C)n2)OC(=O)C[C@H](O)C(C)(C)C(=O)[C@H](C)[C@@H](O)[C@@H](C)CCC1 [Compound 12, (S)-C14-methyl epothilone D] |  |  |  |  | significant |  | 35 | 238 | 42 | 42 |
